Assay [1] concerns the target T1, SLC7A10+SLC3A2 (asc-1/4f2) (Homo sapiens, UniProt Q9NS82).
T1 construct: expressed in transfected cells; host or cells: Xenopus laevis oocytes (cRNA co-injection)
T1 sequence (Q9NS82 1-523): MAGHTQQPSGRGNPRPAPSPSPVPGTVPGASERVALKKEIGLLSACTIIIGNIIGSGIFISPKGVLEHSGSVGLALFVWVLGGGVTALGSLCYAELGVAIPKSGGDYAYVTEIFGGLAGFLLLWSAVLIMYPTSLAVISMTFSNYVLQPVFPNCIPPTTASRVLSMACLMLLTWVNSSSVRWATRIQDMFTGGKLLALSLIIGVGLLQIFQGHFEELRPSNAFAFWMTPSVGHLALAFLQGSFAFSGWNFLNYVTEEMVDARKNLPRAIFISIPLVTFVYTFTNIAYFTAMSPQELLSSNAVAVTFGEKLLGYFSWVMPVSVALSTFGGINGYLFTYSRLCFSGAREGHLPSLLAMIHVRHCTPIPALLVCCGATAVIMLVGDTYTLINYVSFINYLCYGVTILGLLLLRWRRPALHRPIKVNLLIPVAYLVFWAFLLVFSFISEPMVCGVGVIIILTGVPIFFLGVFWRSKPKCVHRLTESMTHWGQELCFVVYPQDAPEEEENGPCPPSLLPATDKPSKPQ
T1 sequence (P08195 1-529 partner): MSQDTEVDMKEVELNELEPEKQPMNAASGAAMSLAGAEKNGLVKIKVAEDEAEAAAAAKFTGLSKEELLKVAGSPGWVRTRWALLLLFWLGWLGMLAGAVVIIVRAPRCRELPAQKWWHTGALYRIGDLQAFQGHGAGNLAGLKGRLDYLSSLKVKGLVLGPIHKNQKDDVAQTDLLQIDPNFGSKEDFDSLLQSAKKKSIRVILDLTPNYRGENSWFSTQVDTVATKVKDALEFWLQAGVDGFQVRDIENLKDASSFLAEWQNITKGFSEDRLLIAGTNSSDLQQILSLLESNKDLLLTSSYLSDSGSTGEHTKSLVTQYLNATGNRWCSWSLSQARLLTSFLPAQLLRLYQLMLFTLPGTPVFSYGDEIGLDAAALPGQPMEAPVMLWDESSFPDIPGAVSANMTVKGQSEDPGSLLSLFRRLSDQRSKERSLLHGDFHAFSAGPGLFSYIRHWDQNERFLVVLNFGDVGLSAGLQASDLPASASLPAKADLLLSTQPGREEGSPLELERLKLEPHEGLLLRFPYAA
Description: [3H]D-serine uptake in oocytes. The format is cell-based. As to conditions: 10 µM BPOHP. As for the experimental part: (§1) BPOHP activity was evaluated against the glutamate transporters paralogs within the SLC1A gene family (SLC1A 1–3) as well as at neutral amino acid transporters that share common ligand substrates with the SLC1 family including SLC38A1,2, and 4 (ATA1, ATA2, ATA3) and heteromeric transporters SLC7A10+SLC3A2 (asc-1/4f2). […] Finally, radiolabeled [^3H]D-serine uptake was used to assess the electroneutral SLC7A10+SLC3A2 transporter, in which 10 µM BPOHP had no effect (Figure S3).
(§2) Uptake was halted by washing 3 times with 4 °C ND96 buffer. Oocytes were then lysed in 0.1% Triton X-100, and radioactivity was counted via liquid scintillation. Dose response curves were generated by fitting fractional inhibition (I) to the expression I = Imax × [inhibitor]/([inhibitor] + IC50).
Figure SM-3A. Representative traces showing 100µM L-Ala currents and co-application of 3µM BPOHP (black bar) with no effect on SLC38A neutral amino acid transporters SLC38A1(ATA1), SLC38A2 (ATA2), and SLC38A4 (ATA3). SM-3B. [3H]D-serine uptake (100nM) in SLC1A4 is blocked by BPOHP (10µM), however, [ 3H]D-serine uptake by co -expressed SLC7A10+SLC3A2 (asc1+4F2) nor SLC3A2 (4f2) expressed (injected) alone was blocked by application of 10µM BPOHP.
Figure SM-4. Tosic acid approach to compound 12c. (i) Tosylic acid 0.1M in THF 60◦C. (ii) Phenol and NaH in DCM, 40◦C under argon balloon (iii) 10% Pd/C (10% w/eq.), H2, MeOH, H2O, […]

Assay [2] addresses T2, SLC1A2 (EAAT2) (Homo sapiens, UniProt P43004).
T2 construct: expressed in transfected cells; host or cells: Xenopus laevis oocytes (cRNA injection)
Description: TEVC in oocytes expressing glutamate transporter. The format is cell-based. As to conditions: 10 µM L-glu current, read-out: IC50, block of glutamate current. As for the experimental part: as §1, §2
Two-electrode voltage clamp (TEVC) transporter currents were recorded with a GeneClamp 500 amplifier and Digidata 1320A analog–digital interface (Molecular Devices, San Jose, CA, USA). […] Data were acquired with Axograph (v1.7.6) and LabChart (v7) and analyzed with Kaleidagraph software (v4.1) (Synergy, Reading, PA, USA). Uncoupled anion currents associated with the transport of substrate and block of SLC1A4 or SLC1A5 mediated leak conductance were recorded in the presence of Ringer with 50% substitution of NaCl by NaSCN to amplify the non-transported anion conductance. […]

The structures appear in SMILES notation. “Also recorded” adds a separate entry of the source.

What is called IC50 is the point on the concentration scale where inhibition reaches its midpoint.

T2 sequence (P43004 whole entry): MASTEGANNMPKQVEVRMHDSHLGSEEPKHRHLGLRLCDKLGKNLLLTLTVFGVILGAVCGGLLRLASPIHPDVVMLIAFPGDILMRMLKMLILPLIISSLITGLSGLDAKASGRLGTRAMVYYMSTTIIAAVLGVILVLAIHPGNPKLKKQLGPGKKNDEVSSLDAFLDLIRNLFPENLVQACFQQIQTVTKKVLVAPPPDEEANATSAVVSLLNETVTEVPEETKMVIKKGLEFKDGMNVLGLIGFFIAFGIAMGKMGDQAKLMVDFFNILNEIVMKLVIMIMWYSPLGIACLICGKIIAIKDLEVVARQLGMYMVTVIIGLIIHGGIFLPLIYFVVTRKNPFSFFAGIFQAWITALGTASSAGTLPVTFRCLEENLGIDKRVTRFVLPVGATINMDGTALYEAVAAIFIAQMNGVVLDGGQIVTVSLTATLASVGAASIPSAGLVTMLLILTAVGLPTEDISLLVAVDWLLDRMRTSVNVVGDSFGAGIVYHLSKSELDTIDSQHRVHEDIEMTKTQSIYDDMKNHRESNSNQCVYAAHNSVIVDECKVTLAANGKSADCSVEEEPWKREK

Turning to `O=C(O)[C@H]1NC[C@@H](OCc2ccc(-c3ccccc3)cc2)[C@@H]1O` [14e], the “effect on [3H]D-serine uptake” value in assay [1] is recorded as “no effect; also recorded: no inhibition was detected”. Besides, the half-maximal inhibitory concentration (IC50) in assay [2] stood at 1200 nM.
